Measurements: PMC5377235, “A new target region for changing the substrate specificity of amine transaminases” (Scientific Reports, 2015)

Columns and labels:
ATA-117-Rd11 = target: T1, ATA-117-Rd11 (Arthrobacter sp. KNK168, UniProt F7J696, S8P/Y60F/L61Y/H62T/V65A/V69T/D81G/M94I/I96L/F122M/S124T/S126T/G136F/Y150S/V152C/A169L/V199I/A209L/G215C/G217N/S223P/L269P/L273Y/T282S/A284G/P297S/S321P); assay: X-ray crystal structure, […] Å; format: binding; details: covalent; internal aldimine
T1 construct: gene TAS; synthetic gene, pET28a N-His tag, thrombin cleaved; E. coli; homodimer

Ab-R-ATA [1] = target: T2, Ab-R-ATA (Arthrobacter sp. KNK168, UniProt F7J696); assay: HPLC of acetophenone formed, initial kinetics; format: biochemical; details: 10 mM (R)-1-phenylethylamine as amino donor, 0.5 mM PLP, 100 mM Tris-HCl pH 8.5, 30 °C
T2 construct: gene TAS; full length, 330 amino acids, no tag, pUCNT vector, E. coli Rosetta (DE3); homodimer, active site formed with loop 129-145 of the other protomer
Source text: (§1) HPLC of acetophenone formed, initial kinetics on Ab-R-ATA | The kcat/Km values for pyruvate of the R138A and the R138Q mutants

Ab-R-ATA [2] = target: T3, Ab-R-ATA (Arthrobacter sp. KNK168, UniProt F7J696, R138Q, form not given); assay: HPLC of acetophenone formed, initial kinetics; format: biochemical; details: 10 mM (R)-1-phenylethylamine as amino donor, 0.5 mM PLP, 100 mM Tris-HCl pH 8.5, 30 °C
T3 construct: gene TAS; full length, 330 amino acids, no tag, pUCNT vector, E. coli Rosetta (DE3); homodimer, active site formed with loop 129-145 of the other protomer
Source text: as §1

Row | Km (Ab-R-ATA [1]) [mM] | Km (Ab-R-ATA [2]) [mM] | SMILES | X-ray crystal structure, 2.20 Å (ATA-117-Rd11)
1 | – | – | Cc1ncc(COP(=O)(O)O)c(C=O)c1O [PLP] | The cofactor PLP in the active site is shown as green sticks
2 | 5.8 ± 0.1 | 66 ± 3 | CC(=O)C(=O)O [pyruvate] | –
